# Measured values reported in US11939304B1, “Ethyl 6-(5-(3-fluorophenyl)-4-phenyl-4H-1,2,4-triazol-3-ylthio)hexanoate as an antimicrobial compound” (KING FAISAL UNIVERSITY, priority 2023, dated 2024).
# Tests used:
# [1] = system: Bacillus cereus; assay: agar plate disc-diffusion, antibacterial inhibition zone; assay type: cell-based; settings: nutrient agar, 37° C., 48 hours, DMSO zone subtracted
# Method: (§1) The agar plate disc-diffusion method was applied. […] The discs were then placed onto the surface of agar plates (nutrient agar for bacteria and Sabouraud's dextrose agar for fungi) seeded with the test organism. Each plate contained 15 mL of the agar medium, previously seeded with 0.2 mL of the broth culture of each organism pregrown for 18 hours. The plates were incubated at 37° C. for 48 hours, and 72 hours for fungi. The inhibition zones were measured in mm. Discs impregnated with DMSO were used as a control, and its inhibition zone was subtracted from the tested compound actual inhibition zone.
# [2] = system: Escherichia coli; assay: as above; assay type: cell-based; settings: nutrient agar, 37° C., 48 hours, DMSO zone subtracted
# Method: as §1
# [3] = system: Pseudomonas aeruginosa; assay: as above; assay type: cell-based; settings: nutrient agar, 37° C., 48 hours, DMSO zone subtracted
# Method: as §1
# [4] = system: Staphylococcus aureus; assay: as above; assay type: cell-based; settings: nutrient agar, 37° C., 48 hours, DMSO zone subtracted
# Method: as §1
# [5] = system: Aspergillus flavus; assay: agar plate disc-diffusion, antifungal inhibition zone; assay type: cell-based; settings: Sabouraud's dextrose agar, 37° C., 72 hours, DMSO zone subtracted
# Method: as §1
# [6] = system: Chrysosporium keratinophilum; assay: as above; assay type: cell-based; settings: Sabouraud's dextrose agar, 37° C., 72 hours, DMSO zone subtracted
# Method: as §1
# [7] = A = concentration of comp. = 10,000 μL
# [8] = B = concentration of comp. = 30,000 μL
# [9] = C = concentration of comp. = 50,000 μL
smiles,measurement,setting,value
"CCOC(=O)CCCCCSc1nnc(-c2cccc(F)c2)n1-c1ccccc1 [III, ethyl 6-(5-(3-fluorophenyl)-4-phenyl-4H-1,2,4-triazol-3-ylthio)hexanoate]","inhibition zone, Bacillus Cereus, A",[1]; [7],28 mm
same,"inhibition zone, Bacillus Cereus, B",[1]; [8],30 mm
same,"inhibition zone, Bacillus Cereus, C",[1]; [9],41 mm
same,"inhibition zone, Escherichia coli, A",[2]; [7],27 mm
same,"inhibition zone, Escherichia coli, B",[2]; [8],35 mm
same,"inhibition zone, Escherichia coli, C",[2]; [9],50 mm
same,"inhibition zone, Pseudomonas aeruginosa, A",[3]; [7],26 mm
same,"inhibition zone, Pseudomonas aeruginosa, B",[3]; [8],29 mm
same,"inhibition zone, Pseudomonas aeruginosa, C",[3]; [9],41 mm
same,"inhibition zone, Staphylococcus aureus, A",[4]; [7],12 mm
same,"inhibition zone, Staphylococcus aureus, B",[4]; [8],19 mm
same,"inhibition zone, Staphylococcus aureus, C",[4]; [9],23 mm
same,"inhibition zone, Aspergillus flavus, A",[5]; [7],24 mm
same,"inhibition zone, Aspergillus flavus, B",[5]; [8],27 mm
same,"inhibition zone, Aspergillus flavus, C",[5]; [9],38 mm
same,"inhibition zone, Chrysosporium keratinophilum, A",[6]; [7],23 mm
same,"inhibition zone, Chrysosporium keratinophilum, B",[6]; [8],28 mm
same,"inhibition zone, Chrysosporium keratinophilum, C",[6]; [9],42 mm
same,melting point,,107 to 109 °C
